Measured values reported in publication PMC3027604, “Spermine oxidase (SMO) activity in breast tumor tissues and biochemical analysis of the anticancer spermine analogues BENSpm and CPENSpm” (2010).

Columns and labels:
spermine oxidase (mSMO) [1] = target: T1, spermine oxidase (mSMO) (Mus musculus, UniProt Q99K82); experiment: enzyme inhibition of mSMO, Ki in Table […] (reference inhibitor; assay not detailed in Methods); assay type: biochemical; details: cited from earlier work
T1 construct: gene Smox; Murine recombinant SMO

spermine oxidase (mSMO) [2] = target: T1, spermine oxidase (mSMO); experiment: enzyme inhibition of recombinant mSMO with Spm as substrate, Dixon plot; assay type: biochemical

T1 sequence (Q99K82 whole entry): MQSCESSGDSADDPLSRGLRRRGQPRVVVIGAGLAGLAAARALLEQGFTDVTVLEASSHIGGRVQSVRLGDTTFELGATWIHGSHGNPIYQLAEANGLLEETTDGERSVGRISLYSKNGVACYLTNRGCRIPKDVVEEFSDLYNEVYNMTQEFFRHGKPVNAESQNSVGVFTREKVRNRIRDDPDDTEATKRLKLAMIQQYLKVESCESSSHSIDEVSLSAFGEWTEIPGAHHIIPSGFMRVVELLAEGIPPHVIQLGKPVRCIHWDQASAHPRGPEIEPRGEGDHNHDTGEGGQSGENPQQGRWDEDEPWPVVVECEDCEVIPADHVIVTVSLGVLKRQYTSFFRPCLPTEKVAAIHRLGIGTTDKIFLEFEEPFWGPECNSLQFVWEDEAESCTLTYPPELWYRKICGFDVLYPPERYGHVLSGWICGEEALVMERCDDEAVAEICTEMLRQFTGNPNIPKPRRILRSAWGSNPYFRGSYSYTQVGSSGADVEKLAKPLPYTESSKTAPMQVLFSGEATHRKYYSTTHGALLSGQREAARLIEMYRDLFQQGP

Ki (spermine oxidase (mSMO) [2]) | Structure (SMILES) | Ki (spermine oxidase (mSMO) [1])
– | C=C=CCNCCCCNCC=C=C [MDL72527, N^1, N^4-bis(2,3-butadienyl)-1,4butanediamine] | 63 µM
380 µM | CCNCCCNCCCNCCCNCC [BENSpm] | –
85 µM | CCNCCCNCCCNCCCNCC1CC1 [CPENSpm, N^1-ethyl-N^11-(cyclopropyl)-methyl-4,8-diazaundecane] | –
